# From publication PMC10892410, “[^18F]Fluspidine—A PET Tracer for Imaging of σ1 Receptors in the Central Nervous System” (Pharmaceuticals, 2024)
# Several values for one entry are separate records, joined by “and”; a condition that tells them apart may be missing. Equal values may be shown once. Read-outs that look alike come from different tables or passages of the source.
# What was measured:
# σ1 receptor [1] = conditions: cited from earlier work; for uptake in the brain: i.v., female CD1-mice
# [2] = cited from earlier work
# σ1 receptor [3] = conditions: cited from earlier work
# σ1 receptor [4] = conditions: rhesus monkey, 1-tissue compartment model, baseline conditions, N = 1; cited from earlier work
# [5] = rhesus monkey, in vivo; cited from earlier work
# σ1 receptor [6] = conditions: cited from earlier work; for SUV120min p.i. as % of SUV5min p.i.: piglet brain; for SUV120min p.i. as % of SUV5min p.i. / whole-brain distribution volume VT: baseline; for VT, cerebellum / VT, colliculi / VT, cortex / VT, hippocampus / VT, midbrain / VT, striatum / VT, thalamus: piglet, Logan plot, baseline conditions, N = 3; for whole-brain distribution volume VT / decrease in VT upon SA 4503 blockade of σ1 receptors / standardized uptake value (SUV) in brain: piglets; for whole-brain distribution volume VT: two-tissue compartment modeling, metabolite-corrected plasma input; for decrease in VT upon SA 4503 blockade of σ1 receptors: whole brain, Logan plot analysis; for standardized uptake value (SUV) in brain: within 3 min after injection
# σ1 receptor [7] = conditions: cited from earlier work; for VT: healthy volunteers
# σ1 receptor [8] = conditions: in Figure 5; cited from earlier work
# σ2 receptor [9] = conditions: in Figure 5; cited from earlier work
# [10] = pH 7.2; cited from earlier work
# [11] = logD7.4 by micro-shake flask method; type: physicochemical; conditions: n-octanol/MOPS buffer pH 7.4, determined by LC-MS
# Description: The lipophilicity of the homologous fluoroalkyl derivatives 1–4 was determined by the micro-shake flask method. After the distribution of the compounds between an n-octanol layer and MOPS buffer (pH 7.4), the amount of the compound in the buffer layer was determined by mass spectrometry. The recorded logD7.4 values were compared with the logD7.2 values determined by the distribution of the analogous ^18F-labeled compounds [^18F]1–[^18F]4 between n-octanol and phosphate-buffered saline, pH 7.2. The logD7.2 values were calculated from the distribution of radioactivity in both layers.
# [12] = metabolic stability with mouse liver microsomes and NADPH; conditions: LC-MS
# Description: After an incubation period of 90 min, the amount of remaining test compound was determined by LC-MS [42, 43, 44].
# σ2 receptor [13] = target: σ2 receptor; set-up: method as in PMID 22136765, PMID 21126878, PMID 21072511, PMID 19791807, PMID 21618432; conditions: cited from earlier work
# σ1 receptor [14] = experiment: σ1 receptor affinity (receptor binding); conditions: ratio Ki(σ2)/Ki(σ1)
# human serum albumin = human serum albumin (Homo sapiens, UniProt P02768); experiment: plasma protein binding by HPLC on human serum albumin stationary phase; type: in vitro ADME; conditions: stationary phase coated with human serum albumin
# Chain of human serum albumin (P02768 25-609): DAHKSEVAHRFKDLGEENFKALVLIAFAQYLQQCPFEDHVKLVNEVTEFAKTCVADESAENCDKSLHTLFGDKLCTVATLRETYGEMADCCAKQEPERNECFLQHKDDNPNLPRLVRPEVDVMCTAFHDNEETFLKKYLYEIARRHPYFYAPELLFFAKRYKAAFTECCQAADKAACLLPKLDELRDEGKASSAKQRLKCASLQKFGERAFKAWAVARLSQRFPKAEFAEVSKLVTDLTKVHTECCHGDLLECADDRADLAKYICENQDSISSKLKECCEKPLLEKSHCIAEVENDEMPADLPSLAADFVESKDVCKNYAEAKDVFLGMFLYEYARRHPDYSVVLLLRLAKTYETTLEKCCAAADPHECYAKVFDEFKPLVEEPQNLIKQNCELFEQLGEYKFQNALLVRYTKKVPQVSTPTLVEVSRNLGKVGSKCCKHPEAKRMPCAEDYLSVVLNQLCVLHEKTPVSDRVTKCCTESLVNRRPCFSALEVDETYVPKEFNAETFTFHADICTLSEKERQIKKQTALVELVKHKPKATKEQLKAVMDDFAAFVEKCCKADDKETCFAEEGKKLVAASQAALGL
# Description: Plasma protein binding was recorded by HPLC analysis using a stationary phase coated with human serum albumin. The resulting retention times correlate with binding to human serum albumin [42].
# dopamine D2/D3 receptors = conditions: healthy volunteers and HD patients; cited from earlier work
# σ1 receptor [15] = conditions: healthy volunteers and HD patients, therapeutic doses; cited from earlier work
# [16] = pure fluspidine enantiomers, read-out: Ki, σ1 receptor affinity
# [17] = racemic spirocyclic piperidines, read-out: Ki(σ1)
structure (smiles),measurement,setting,value
FCCC1OC2(CCN(Cc3ccccc3)CC2)c2ccccc21 (racemic) [rac-[^18F]2],uptake in the brain,σ1 receptor [1]; 5 min p.i.,3.88 % ID/g
same,uptake in the brain,σ1 receptor [1]; 30 min p.i.,4.71 % ID/g
same,uptake in the brain,σ1 receptor [1]; 120 min p.i.,2.82 % ID/g
same,"Ratio of activity concentration, cerebellum vs. olfactory bulb","σ1 receptor [1]; mouse, 45 min p.i., N = 1",1.75
same,"Ratio of activity concentration, cortex vs. olfactory bulb","σ1 receptor [1]; mouse, 45 min p.i., N = 1",1.45
same,"Ratio of activity concentration, facial nucleus vs. olfactory bulb","σ1 receptor [1]; mouse, 45 min p.i., N = 1",4.69
same,"Ratio of activity concentration, hippocampus vs. olfactory bulb","σ1 receptor [1]; mouse, 45 min p.i., N = 1",1.21
same,"Ratio of activity concentration, striatum vs. olfactory bulb","σ1 receptor [1]; mouse, 45 min p.i., N = 1",1.11
same,"Ratio of activity concentration, superficial grey layer of superior colliculus vs. olfactory bulb","σ1 receptor [1]; mouse, 45 min p.i., N = 1",1.57
same,"Ratio of activity concentration, thalamus vs. olfactory bulb","σ1 receptor [1]; mouse, 45 min p.i., N = 1",1.24
same,activity in brain due to unchanged radioligand,"[2]; brains of CD-1 mice, 60 min after intravenous administration",98%
same,proportion of unchanged PET tracer in plasma,"[2]; mouse, in vivo, iv",75%
FCC[C@H]1OC2(CCN(Cc3ccccc3)CC2)c2ccccc21 [(R)-2],Ki,σ1 receptor [3]; [16],0.57 nM
[18F]CC[C@H]1OC2(CCN(Cc3ccccc3)CC2)c2ccccc21 [(R)-[^18F]2],"VT, amygdala",σ1 receptor [4],153 mL/g
same,"VT, caudate",σ1 receptor [4],181 mL/g
same,"VT, cerebellum",σ1 receptor [4],175 mL/g
same,"VT, cortex",σ1 receptor [4],174 to 291 mL/g
same,"VT, hippocampus",σ1 receptor [4],193 mL/g
same,"VT, putamen",σ1 receptor [4],199 mL/g
same,"VT, thalamus",σ1 receptor [4],128 mL/g
same,fraction of unchanged PET tracer in plasma,[5],> 30%
same,SUV120min p.i. as % of SUV5min p.i.,σ1 receptor [6],~ 80%
same,"VT, cerebellum",σ1 receptor [6],140 mL/g
same,"VT, colliculi",σ1 receptor [6],123 mL/g
same,"VT, cortex",σ1 receptor [6],67.8 to 98.4 mL/g
same,"VT, hippocampus",σ1 receptor [6],95.2 mL/g
same,"VT, midbrain",σ1 receptor [6],132 mL/g
same,"VT, striatum",σ1 receptor [6],100 mL/g
same,"VT, thalamus",σ1 receptor [6],106 mL/g
same,whole-brain distribution volume VT,σ1 receptor [6],133 mL/g
same,decrease in VT upon SA 4503 blockade of σ1 receptors,σ1 receptor [6],−89%
same,standardized uptake value (SUV) in brain,σ1 receptor [6],about 2
FCC[C@@H]1OC2(CCN(Cc3ccccc3)CC2)c2ccccc21 [(S)-2],Ki,σ1 receptor [3]; [16],2.3 nM
[18F]CC[C@@H]1OC2(CCN(Cc3ccccc3)CC2)c2ccccc21 [(S)-[^18F]2],VT,σ1 receptor [7]; frontal cortex,21 mL/g
same,VT,σ1 receptor [7]; striatum,19 mL/g
same,free fraction in blood plasma fp,σ1 receptor [7]; human,0.023
same,"VT, amygdala",σ1 receptor [4],14.6 mL/g
same,"VT, caudate",σ1 receptor [4],13.5 mL/g
same,"VT, cerebellum",σ1 receptor [4],13.6 mL/g
same,"VT, cortex",σ1 receptor [4],14.6 to 19.6 mL/g
same,"VT, hippocampus",σ1 receptor [4],16.4 mL/g
same,"VT, putamen",σ1 receptor [4],14.9 mL/g
same,"VT, thalamus",σ1 receptor [4],12.2 mL/g
same,fraction of unchanged PET tracer in plasma,[5],> 30%
same,SUV120min p.i. as % of SUV5min p.i.,σ1 receptor [6],~ 50%
same,"VT, cerebellum",σ1 receptor [6],14.8 mL/g
same,"VT, colliculi",σ1 receptor [6],15.2 mL/g
same,"VT, cortex",σ1 receptor [6],9.8 to 13.1 mL/g
same,"VT, hippocampus",σ1 receptor [6],13.5 mL/g
same,"VT, midbrain",σ1 receptor [6],15.4 mL/g
same,"VT, striatum",σ1 receptor [6],13.5 mL/g
same,"VT, thalamus",σ1 receptor [6],14.1 mL/g
same,whole-brain distribution volume VT,σ1 receptor [6],13 mL/g
same,decrease in VT upon SA 4503 blockade of σ1 receptors,σ1 receptor [6],−55%
same,standardized uptake value (SUV) in brain,σ1 receptor [6],about 2
COc1cc(CCN2CCN(CCCc3ccccc3)CC2)ccc1OCC[18F] [[^18F]FE-SA 4503],IC50,σ1 receptor [8],6.5 nM
same,IC50,σ2 receptor [9],2.1 nM
COc1cc(CCN2CCN(CCCc3ccccc3)CC2)ccc1OC[18F] [[^18F]FM-SA 4503],Ki,σ1 receptor [8],6.4 nM
same,Ki,σ2 receptor [9],250 nM
FCC1OC2(CCN(Cc3ccccc3)CC2)c2ccccc21 (stereo not drawn) [compound 1],logD7.2 PET Tracer,[10],2.39 ± 0.04
same,Ki,σ1 receptor [3]; [17],0.74 nM
same,logD,[11],2.8 ± 0.04
same,In Vitro Metabolism—Intact Compd. after 90 min,[12],53% and 53 ± 3.9%
same,Ki,σ2 receptor [13],0.55 µM
same,σ1/σ2 Selectivity,σ1 receptor [14],743
same,fraction unbound,human serum albumin,0.16
FCCC1OC2(CCN(Cc3ccccc3)CC2)c2ccccc21 (stereo not drawn) [compound 2],logD7.2 PET Tracer,[10],2.57 ± 0.32
same,Ki,σ1 receptor [3]; [17],0.59 nM
same,logD,[11],3.33 ± 0.07
same,In Vitro Metabolism—Intact Compd. after 90 min,[12],34% and 34 ± 8.8%
same,Ki,σ2 receptor [13],0.785 µM
same,σ1/σ2 Selectivity,σ1 receptor [14],1331
same,fraction unbound,human serum albumin,0.12
FCCCC1OC2(CCN(Cc3ccccc3)CC2)c2ccccc21 (stereo not drawn) [compound 3],logD7.2 PET Tracer,[10],2.78 ± 0.06
same,Ki,σ1 receptor [3]; [17],1.4 nM
same,logD,[11],3.6 ± 0.12
same,In Vitro Metabolism—Intact Compd. after 90 min,[12],33% and 33 ± 7.9%
same,Ki,σ2 receptor [13],0.837 µM
same,σ1/σ2 Selectivity,σ1 receptor [14],598
same,fraction unbound,human serum albumin,0.09
FCCCCC1OC2(CCN(Cc3ccccc3)CC2)c2ccccc21 (stereo not drawn) [compound 4],logD7.2 PET Tracer,[10],3.11 ± 0.14
same,Ki,σ1 receptor [3]; [17],1.2 nM
same,logD,[11],3.71 ± 0.14
same,In Vitro Metabolism—Intact Compd. after 90 min,[12],28% and 28 ± 4.5%
same,Ki,σ2 receptor [13],0.489 µM
same,σ1/σ2 Selectivity,σ1 receptor [14],408
same,fraction unbound,human serum albumin,0.05
FCCC1OC2(CCN(Cc3ccc(F)cc3)CC2)c2ccccc21 (stereo not drawn) [compound 5],Ki,σ1 receptor [3]; [17],0.57 nM
same,Ki,σ2 receptor [13],0.481 µM
same,σ1/σ2 Selectivity,σ1 receptor [14],844
FCCC1OC2(CCN(CC3CCCCC3)CC2)c2ccccc21 (stereo not drawn) [compound 6],Ki,σ1 receptor [3]; [17],0.71 nM
same,Ki,σ2 receptor [13],0.057 µM
same,σ1/σ2 Selectivity,σ1 receptor [14],80
CC(c1ccccc1)N1CCC2(CC1)OC(CCF)c1ccccc12 (stereo not drawn) [compound 7],Ki,σ1 receptor [3]; [17],1 nM
same,Ki,σ2 receptor [13]; cells printed in µM,> 1 µM
same,σ1/σ2 Selectivity,σ1 receptor [14],>1000
CCCCN1CCC2(CC1)OC(CCF)c1ccccc12 (stereo not drawn) [compound 8],Ki,σ1 receptor [3]; [17],3.9 nM
same,Ki,σ2 receptor [13],0.878 µM
same,σ1/σ2 Selectivity,σ1 receptor [14],225
CCCCCCCCN1CCC2(CC1)OC(CCF)c1ccccc12 (stereo not drawn) [compound 9],Ki,σ1 receptor [3]; [17],15 nM
same,Ki,σ2 receptor [13],0.118 µM
same,σ1/σ2 Selectivity,σ1 receptor [14],7.9
CC(C)=CCN1CCC2(CC1)OC(CCF)c1ccccc12 (stereo not drawn) [compound 10],Ki,σ1 receptor [3]; [17],1.5 nM
same,Ki,σ2 receptor [13]; cells printed in µM,> 1 µM
"COc1ccc(CCN2CCN(CCCc3ccccc3)CC2)cc1OC [cutamesine, 1-[2-(3,4-dimethoxyphenyl)ethyl]-4-(3-phenylpropyl)piperazine]",IC50,σ1 receptor [8],4.6 nM
same,IC50,σ2 receptor [9],63.1 nM
"CCCN1CCC(c2cccc(S(C)(=O)=O)c2)CC1 [pridopidine, 4-[3-(methylsulfonyl)phenyl]-1-propylpiperidine]",occupancy of dopamine D2/D3 receptors,dopamine D2/D3 receptors,minimal occupancy
same,binding to the σ1 receptor in the brain (occupancy study),σ1 receptor [15],selective binding
